The values below come from PMC8594587 (Journal of medicinal chemistry, 2021).

One series relates to HIV-2 ROD. Description: Anti-HIV-2 ROD activity in MT-4 cells, MTT method. Format: cell-based. To be noted: Human immunodeficiency virus 2, MT4, read-out: EC50 ROD.
A short description of series [1]: Acute toxicity test in Kunming mice. Format: in vivo. To be noted: Kunming, mouse, in vivo, po.
The subject of the next series is Kunming mice. Description: Acute toxicity test in Kunming mice. In kind it is in vivo. The note with it: Kunming mice.
The nature of the next series: in vivo. The note with it: Sprague-Dawley, rat, iv, 2 mg/kg.
The subject of series [2] is HIV-1 K103N+Y181C (RES056). Description: microbe, parasite or virus in culture. Format: cell-based. To be noted: Human immunodeficiency virus 1, MT4, read-out: EC50 RES056.
The subject of a further series is HIV-1 F227L+V106A. In kind it is cell-based. The note with it: Human immunodeficiency virus 1, MT4, read-out: EC50 F227L+V106A.

What is called EC50 is the concentration needed to bring the measured effect to its halfway point. Regarding `Cc1cc(C#N)cc(C)c1Oc1nc(NC2CCN(Cc3ccc(C(N)=O)cc3)CC2)ncc1-c1ccoc1` [Compound 14c, 4-((4-((4-(4-cyano-2,6-dimethylphenoxy)-5-(furan-3-yl)pyrimidin-2-yl)amino)piperidin-1-yl)methyl)benzamide], the EC50 with HIV-2 ROD was greater than 182 µM.

One may read the LD50 as the dose expected to kill half of the subjects tested. A higher LD50 goes with a less toxic substance. Usually Tmax stands for the time from dosing to the highest level. Take `Cc1cc(C#N)cc(C)c1Oc1nc(NC2CCN(Cc3ccc(C(N)=O)cc3)CC2)ncc1-c1ccncc1` [Compound 16c, 4-((4-((4-(4-cyano-2,6-dimethylphenoxy)-5-(pyridin-4-yl)pyrimidin-2-yl)amino)piperidin-1-yl)methyl)benzamide]: in the series with HIV-2 ROD, the EC50 is greater than 36 µM. The molecule further gave an LD50 at 2 weeks in series [1] greater than 2000 mg/kg. Moreover, the “acute toxicity, tolerability” value in the series on Kunming mice (single oral dose) was “well-tolerated up to a dose of 2000 mg/kg with no acute toxicity”. For the same molecule, the body weight change result with Kunming mice (single oral dose 2000 mg/kg) was “no abnormality of body weight changed”. The “toxic symptoms or mortality” value in the series on Kunming mice (single oral dose 2000 mg/kg, subsequent two weeks) is “did not exhibit any toxic symptoms or mortality”. In the series “in vivo”, the Tmax worked out at 1.98 min.

With `Cc1cc(C#N)cc(C)c1Oc1nc(NC2CCN(Cc3ccc(S(N)(=O)=O)cc3)CC2)ncc1-c1ccsc1` [Compound 12a, 4-((4-((4-(4-cyano-2,6-dimethylphenoxy)-5-(thiophen-3-yl)pyrimidin-2-yl)amino)piperidin-1-yl)methyl)benzenesulfonamide], the EC50 in the series with HIV-2 ROD is greater than 6.12 µM.

In the case of `Cc1cc(C#N)cc(C)c1Oc1nc(Nc2ccc(C#N)cc2)nc(N)c1Br` [ETR, etravirine], the figures for the EC50 (in series [2]; in the series on HIV-1 F227L+V106A) were 0.0522 ± 0.0242 µM and 0.0269 ± 0.0023 µM, respectively.

On to `Cc1cc(C#N)cc(C)c1Oc1nc(NC2CCN(Cc3ccc(S(C)(=O)=O)cc3)CC2)ncc1-c1ccco1` [Compound 13b, 4-((5-(furan-2-yl)-2-((1-(4-(methylsulfonyl)benzyl)piperidin-4-yl)amino)pyrimidin-4-yl)oxy)-3,5-dimethylbenzonitrile], for which the EC50 with HIV-2 ROD was greater than 7.46 µM.

With `Cc1cc(C#N)cc(C)c1Oc1nc(NC2CCN(Cc3ccc(S(N)(=O)=O)cc3)CC2)ncc1-c1cccs1` [Compound 11a, 4-((4-((4-(4-cyano-2,6-dimethylphenoxy)-5-(thiophen-2-yl)pyrimidin-2-yl)amino)piperidin-1-yl)methyl)benzenesulfonamide], in the series on HIV-2 ROD, the EC50 is no less than 33.4 µM.
